# Assay results from patent publication US4024246A, “Antibiotic A-22082 and process for production thereof” (Eli Lilly and Company, priority 1976, dated 1977).
# Where two headings read alike, the source gives them in different places. *1 amine or outer side, *2 acyl side, *3 side chain or, on linkers, in order; H or OH if unused. Where a SMILES comes first, the peptide text is derived from it. Bridges are numbered along the chain shown (N, C = ends). [ ]: non-standard residue; d: D form. The star is where a group is joined. ξ: configuration not given here. Orn(4R-OH,5R-OH) = O=C([C@H](C[C@@H](O)[C@@H](O)N[*:3])N[*:1])[*:2]; hTyr(3S-OH,4S-OH) = N[C@H](C(=O)O)[C@H](O)[C@@H](O)c1ccc(O)cc1; ξOrn(4,5-diOH) = O=C(C(CC(O)C(O)N[*:3])N[*:1])[*:2]; ξhTyr(βξ-OH,γξ-OH) = NC(C(=O)O)C(O)C(O)c1ccc(O)cc1; Pro(3S-OH,4S-Me) = C[C@H]1CN[C@H](C(=O)O)[C@H]1O; Linoleoyl = CCCCC/C=C\C/C=C\CCCCCCCC(=O)*; ξPro(3ξ-OH,4ξ-Me) = CC1CNC(C(=O)O)C1O; Hyp = O=C(O)[CH]1C[CH](O)CN1; X1 = CCCCCC=CCC=CCCCCCCCC(=O)*
# Experiments:
# dermatophytes [1] = conditions: reported by F. Benz et al., Helv. Chim. Acta 57, 2459-2477 (1974); cited from earlier work
# Candida albicans [2] = assay: disc-diffusion antifungal test, Candida albicans; assay type: cell-based; conditions: Table II, 6-mm pads, agar plates
# Method: (§1) Antibiotic A-22082 is a useful antifungal agent. […] Antifungal activity was measured by the conventional disc-diffusion method (6-mm pads were dipped in solutions containing antibiotic A-22082; pads were placed on agar plates seeded with test organism). Table II summarizes the minimal inhibitory concentration (MIC) per disc at which antibiotic A-22082 inhibited representative organisms.
# [3] = tested on: Trichophyton mentagrophytes; assay: disc-diffusion antifungal test, Trichophyton mentagrophytes; assay type: cell-based; conditions: Table II, 6-mm pads, agar plates
# Method: as §1
# (§2) Antibiotic A-22082 is very active in in vitro disc-diffusion tests against dermatophytes.
# Candida tropicalis = assay: disc-diffusion antifungal test, Candida tropicalis; assay type: cell-based; conditions: Table II, 6-mm pads, agar plates
# Method: as §1
# Trichophyton gallinae = assay: disc-diffusion test, Trichophyton gallinae; assay type: cell-based; conditions: Table III; 1 isolate
# Method: as §1, §2
# Trichophyton meginini = assay: disc-diffusion test, Trichophyton meginini; assay type: cell-based; conditions: Table III; 1 isolate
# Method: as §1, §2
# Trichophyton quinckeanum = assay: disc-diffusion test, Trichophyton quinckeanum; assay type: cell-based; conditions: Table III; 1 isolate
# Method: as §1, §2
# Trichophyton rubrum = assay: disc-diffusion test, Trichophyton rubrum; assay type: cell-based; conditions: Table III; 1 isolate
# Method: as §1, §2
# [4] = tested on: Trichophyton schoenleinii; assay: disc-diffusion test, Trichophyton schoenleinii; assay type: cell-based; conditions: Table III; 1 isolate
# Method: as §1, §2
# Trichophyton terrestre = assay: disc-diffusion test, Trichophyton terrestre; assay type: cell-based; conditions: Table III; 1 isolate
# Method: as §1, §2
# Nannizzia incurvata = assay: disc-diffusion test, Nannizzia incurvata; assay type: cell-based; conditions: Table III; 1 isolate
# Method: as §1, §2
# Philaphere jean salemi = assay: disc-diffusion test, Philaphere jean salemi; assay type: cell-based; conditions: Table III; 1 isolate
# Method: as §1, §2
# [5] = tested on: Epidermatophyton floccosum; assay: disc-diffusion test, Epidermatophyton floccosum; assay type: cell-based; conditions: Table III; 1 isolate
# Method: as §1, §2
# Keratinomyces ajellio = assay: disc-diffusion test, Keratinomyces ajellio; assay type: cell-based; conditions: Table III; 1 isolate
# Method: as §1, §2
# dermatophytes [6] = assay: in vitro activity against dermatophytes; assay type: cell-based; conditions: in words
# Method: as §1, §2
# Candida albicans [7] = assay: in vivo protection of Candida albicans-infected mice; conditions: two doses
# Method: A measure of the protection afforded is the ED50 value [the effective dose in mg./kg. which protects 50 percent of the mice; see W. Wick et al., J. Bacteriol. 81, 233-235 (19610]. The ED50 values for antibiotic A-22082 against Candida albicans in mice were 30 mg./kg. (intraperitoneal administration) and 50 mg./kg. (subcutaneous administration).
# mice = assay: acute toxicity in mice; assay type: in vivo
# Method: 3 times over 24 hours (a total of 600 mg./kg.).
# electrometric titration = assay type: physicochemical; conditions: 66% aqueous dimethylformamide, initial pH 6.9
# solubility = assay type: physicochemical
smiles,measurement,setting,value
"CCCCCC=CCC=CCCCCCCCC(=O)NC1CC(O)C(O)NC(=O)C2C(O)C(C)CN2C(=O)C(C(C)O)NC(=O)C(C(O)C(O)c2ccc(O)cc2)NC(=O)C2CC(O)CN2C(=O)C(C(C)O)NC1=O (stereo not drawn) [Echinocandin B] (X1-[ξOrn(4,5-diOH)]T[Hyp][ξhTyr(βξ-OH,γξ-OH)]T[ξPro(3ξ-OH,4ξ-Me)]; lactam 1-C; configuration not given here)",activity against dermatophytes,dermatophytes [1],inactive against dermatophytes
"CCCCC/C=C\C/C=C\CCCCCCCC(=O)N[C@H]1C[C@@H](O)[C@@H](O)NC(=O)[C@@H]2[C@@H](O)[C@@H](C)CN2C(=O)[C@H]([C@@H](C)O)NC(=O)[C@H]([C@H](O)[C@@H](O)c2ccc(O)cc2)NC(=O)[C@@H]2C[C@@H](O)CN2C(=O)[C@H]([C@@H](C)O)NC1=O [antibiotic A-22082] (Linoleoyl-[Orn(4R-OH,5R-OH)]T[Hyp][hTyr(3S-OH,4S-OH)]T[Pro(3S-OH,4S-Me)]; lactam 1-C)",minimal inhibitory concentration (MIC) per disc,Candida albicans [2],0.625 mcg./disc
same,minimal inhibitory concentration (MIC) per disc,[3],0.078 mcg./disc
same,minimal inhibitory concentration (MIC) per disc,Candida tropicalis,3.12 mcg./disc
same,MIC,Trichophyton gallinae,> 1.25 mcg/disc
same,MIC,Trichophyton meginini,0.0195 mcg/disc
same,MIC,Trichophyton quinckeanum,> 1.25 mcg/disc
same,MIC,Trichophyton rubrum,< .0098 mcg/disc
same,MIC,[4],0.0195 mcg/disc
same,MIC,Trichophyton terrestre,0.0195 mcg/disc
same,MIC,Nannizzia incurvata,0.312 mcg/disc
same,MIC,Philaphere jean salemi,> 1.25 mcg/disc
same,MIC,[5],1.25 mcg/disc
same,MIC,Keratinomyces ajellio,0.156 mcg/disc
same,activity against dermatophytes,dermatophytes [6],very active
same,activity against dermatophytes,dermatophytes [6]; listed as A-22082,active against dermatophytes
same,ED50 (effective dose which protects 50 percent of the mice),Candida albicans [7]; intraperitoneal administration,30 mg/kg
same,ED50 (effective dose which protects 50 percent of the mice),Candida albicans [7]; subcutaneous administration,50 mg/kg
same,protection against C. albicans,Candida albicans [7]; Candida albicans-infected mice,protection against C. albicans was provided
same,signs of acute toxicity,"mice; intraperitoneal, 100 mg./kg. twice per day for three days (total 600 mg./kg.)",no signs of acute toxicity
same,signs of acute toxicity,"mice; ip, 200 mg./kg. 3 times over 24 hours (total 600 mg./kg.)",no signs of acute toxicity
same,signs of acute toxicity,"mice; subcutaneous, 100 mg./kg. twice per day for three days (total 600 mg./kg.)",no signs of acute toxicity
same,pKa value,electrometric titration,12.7
same,solubility in nonpolar organic solvents,"solubility; diethyl ether, petroleum ether",insoluble
same,solubility in aqueous solutions,solubility; especially those having a pH greater than 7.0,soluble
same,solubility in organic solvents,"solubility; methanol, ethanol, dimethylformamide, dimethyl sulfoxide, ethyl acetate",soluble
